Assay results taken from article PMC7915902, “Preclinical Evaluation of [^18F]FACH in Healthy Mice and Piglets: An ^18F-Labeled Ligand for Imaging of Monocarboxylate Transporters with PET” (International Journal of Molecular Sciences, 2021).

Columns and labels:
[1] = test system: MCTs; test: Dynamic PET/MRI in mice with pre-treatment; format: in vivo, mouse; details: mice, PET
Procedure: The biodistribution of [^18F]FACH in mice was assessed by small animal PET (Nanoscan, Mediso, Budapest, Hungary) with dynamic 60 min emission recordings, followed by T1 weighted GRE MR (TR = 15.0 ms, TE = 2.4 ms, FA = 25°) imaging for anatomical correlations and attenuation correction. The mice (n = 20) weighing 32.2 ± 2.9 g were anaesthetised with 2% isoflurane in 60% oxygen, and placed on a thermostatically heated animal bed. The animals then received i.v. injections of 0.9% saline (control), reference compound (10 mg/kg), or α-CCA-Na (25 mg/kg) ten min prior or 20 min after (displacement studies) [^18F]FACH administration (2.3–8.6 MBq, 0.5–11.2 nmol/kg). List mode PET data were binned as a series of attenuation-corrected sinogram frames (12 × 10 s, 6 × 30 s, 5 × 60 s and 10 × 300 s) and were reconstructed by Ordered Subset Expectation Maximization (OSEM3D) with four iterations, six subsets and a voxel size of 0.4 mm³ (Nucline v2.01, Mediso).
(§1) The analysis of reconstructed datasets was performed with PMOD software (v4.103, PMOD Technologies LLC, Zurich, Switzerland).
(§2) Data are shown in mean ± standard deviation (SD). Group differences were tested by Student’s t-test, with p < 0.05 designated as significant. Area Under the Curves (AUCs) and corresponding 95% confidence intervals (CI95%s) were calculated with GraphPad Prism (v.8.2) following the assumptions described by Gagnon et al..

[2] = test system: MCTs; format: in vivo, piglet; details: pig, in vivo
Procedure: The piglets (n = 6) were inititally anaesthetised with intramuscular injections of stresnil and ursotamin, and anaesthesia was maintained with intravenous ursotamin and midazolam, as required. The hematocrit was measured in an ear vein blood sample collected just prior to imaging. Either saline (n = 3) or 25 mg/kg α-CCA-Na (n = 3) in saline was administrated ten min before i.v. administration of [^18F]FACH (261–327 MBq, corresponding to 218–852 pmol/kg) via an ear vein. Imaging was performed with a simultaneous hybrid PET/MR system (mMR Biograph; Siemens, Erlangen, Germany) equipped with dedicated phased-array surface. PET data were reconstructed into a 128 × 128 matrix (voxel size: 1.40 × 1.40 × 2.03 mm^3) using the built-in OSEM3D algorithm with eight iterations, 21 subsets, and a 3-mm Gaussian filter. The attenuation and decay corrected dynamic sequence consisted of 32 frames as follows: 1 × 15, 11 × 30, 1 × 45, 5 × 60, 1 × 90, 5 × 120, 1 × 180, 4 × 240, 1 × 300, 2 × 360 s, whereas activity concentrations in VOIs are represented in units of SUV or percentage of injected dose (%/ID). After completing the dynamic PET recording, piglets were euthanized with an i.v. overdose of T61 (Intervet Deutschland GmbH, Unterschleißheim, Germany) and tissues were sampled for radio-metabolism studies in selected animals.
as §1, §2

[3] = target: T1, MCT1 (Mus musculus, UniProt P53986); test: MCT1 specific cell uptake of [18F]FACH in 4T1 cells; format: cell-based; details: control (vehicle), 30 min incubation, 37 °C, pH 7.4
T1 construct: endogenous in cells; host or cells: 4T1 cells (murine triple negative breast cancer), a gift from István Krizbai's group
T1 sequence (P53986 1-493): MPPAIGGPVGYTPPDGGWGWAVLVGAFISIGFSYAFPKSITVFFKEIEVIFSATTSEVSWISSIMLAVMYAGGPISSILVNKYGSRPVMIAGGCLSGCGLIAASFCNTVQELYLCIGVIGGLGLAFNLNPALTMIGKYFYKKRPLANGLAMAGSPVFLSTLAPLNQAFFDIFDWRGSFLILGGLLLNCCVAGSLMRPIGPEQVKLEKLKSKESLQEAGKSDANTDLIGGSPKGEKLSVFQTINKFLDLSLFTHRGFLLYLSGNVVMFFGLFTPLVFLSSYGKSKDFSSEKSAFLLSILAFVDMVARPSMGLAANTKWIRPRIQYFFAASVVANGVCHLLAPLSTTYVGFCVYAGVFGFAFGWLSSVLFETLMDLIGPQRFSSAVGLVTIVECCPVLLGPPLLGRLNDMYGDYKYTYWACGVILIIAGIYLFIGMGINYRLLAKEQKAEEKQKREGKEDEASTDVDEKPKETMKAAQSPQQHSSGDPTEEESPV
T1 sequence (P18572 140-389 partner limits assumed): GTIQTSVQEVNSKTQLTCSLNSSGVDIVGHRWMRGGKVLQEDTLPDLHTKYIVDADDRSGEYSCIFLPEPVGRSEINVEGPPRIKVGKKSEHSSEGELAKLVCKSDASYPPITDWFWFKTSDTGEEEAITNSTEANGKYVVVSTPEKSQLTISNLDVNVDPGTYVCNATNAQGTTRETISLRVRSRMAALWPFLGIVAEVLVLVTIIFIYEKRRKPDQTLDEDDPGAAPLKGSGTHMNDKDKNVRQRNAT

[4] = test system: MCT1; design: method as in PMID 31017677; details: L-[14C]lactate uptake, rat brain endothelial cells; read-out: IC50 towards MCT1; cited from earlier work
[5] = design: method as in PMID 32357571; details: from dosimetry studies in piglets; cited from earlier work
[6] = Metabolism and renal excretion of [18F]FACH in mice (radio-HPLC)

For `CCCN(CCC[18F])c1ccc(/C=C(\C#N)C(=O)O)c(OC)c1` [[^18F]FACH, (E)-2-cyano-3-{4-[(3-[^18F]fluoropropyl)(propyl)amino]-2-methoxyphenyl}acrylic acid], the “peak TAC SUV whole blood” value ([1]; left heart ventricle VOI, all three treatment groups) was 6.8 ± 1.3, the “AUC0–60 min gall bladder” value ([1]; vehicle pre-treatment) was 481 SUV min and the “AUC0–60 min kidney cortex” value ([1]; vehicle pre-treatment) was 290 SUV min. For the same compound, the “AUC0–60 min liver” value ([1]; vehicle pre-treatment) was 450 SUV min, the “AUC0–60 min small intestine” value ([1]; vehicle pre-treatment) was 99 SUV min and the “AUC0–60 min whole blood” value ([1]; vehicle pre-treatment) was 59 SUV min. For the same compound, the “peak TAC SUV kidney cortex” value [2] was 15.3 ± 2.5, the “peak TAC SUV kidney medulla” value [2] was 66.1 ± 27.7 and the “peak TAC SUV liver” value [2] was 13.2 ± 2.7. For the same compound, the cell-associated radioactivity [3] was 4.7 %ID/mg protein, the IC50 [4] was 11 nM and the “predicted effective radiation dose for humans” value [5] was “about 2 mSv/100 MBq”. For the same compound, the “radioactivity in bladder/urine (renal excretion)” value ([6]; mice, 60 min p.i., control) was 0.51 ± 0.39 %ID, the “intact [18F]FACH in plasma” value ([6]; mouse plasma, 30 min p.i.) was “More than 99%” and the “[18F]FACH (parent) in urine” value ([6]; mouse urine) was < 5%.
